These results are taken from patent US20250296914A1, “ANTIVIRAL COMPOUNDS AND COMPOSITIONS THEREFROM” (CONSEJO SUPERIOR DE INVESTIGACIONES CIENTÍFICAS, priority 2022, published 2025).

The structures appear in SMILES notation. Like-named read-outs stand apart in the source and are kept apart here.

The assay relates to SARS-CoV-2 stock strain NL/2020. Description: Protective effect against virus-induced cytopathic effect (crystal violet staining of Vero-E6 monolayer). As to conditions: Vero-E6, SARS-CoV-2 MOI 0.001, 72 h; for minimal effective concentration / PC MIN (lowest protective concentration): 50 to 0.78 μM tested; for minimal effective concentration: read-out: PC MIN (lowest protective concentration); for EC50: lowest fully protecting concentration averaged with next lower dilution, read-out: ESTIMATED EC50. In kind it is cell-based.

[1] abbreviates: Severe acute respiratory syndrome coronavirus 2, Vero C1008, 72 h.

Turning to `CCc1cccc(-c2ccc(NC(C#N)[C@H](Cc3c[nH]c4ccccc34)NC(=O)OC(C)(C)C)c(C(=O)OC)c2)c1` (stereo partly drawn) [(Iaa), methyl 4-(((2S)-2-((tert-butoxycarbonyl)amino)-1-cyano-3-(1H-indol-3-yl)propyl)amino)-3′-ethyl-[1,1′-biphenyl]-3-carboxylate], under setting [1], the minimal effective concentration came out at 3.12 µM and the EC50 is 2340 nM.

In the case of `COC(=O)c1cc(-c2cccc(N3CCCC3)c2)ccc1NC(C#N)[C@H](Cc1c[nH]c2ccccc12)NC(=O)OC(C)(C)C` (stereo partly drawn) [(Iab), methyl 4-(((2S)-2-((tert-butoxycarbonyl)amino)-1-cyano-3-(1H-indol-3-yl)propyl)amino)-3′-(pyrrolidin-1-yl)-[1,1′-biphenyl]-3-carboxylate], under setting [1], the minimal effective concentration is 3.12 µM and the EC50 is 2340 nM.

For the compound `COC(=O)c1cc(-c2cccc(N(C)C)c2)ccc1NC(C#N)[C@H](Cc1c[nH]c2ccccc12)NC(=O)OC(C)(C)C` (stereo partly drawn) [(Iac), methyl 4-(((2S)-2-((tert-butoxycarbonyl)amino)-1-cyano-3-(1H-indol-3-yl)propyl)amino)-3′-(dimethylamino)-[1,1′-biphenyl]-3-carboxylate], under setting [1], the minimal effective concentration stood at 3.12 µM and the EC50 is 2340 nM.

Turning to `COC(=O)c1cc(-c2cccc(OC(F)(F)F)c2)ccc1NC(C#N)[C@H](Cc1c[nH]c2ccccc12)NC(=O)OC(C)(C)C` (stereo partly drawn) [(Iad), methyl 4-(((2S)-2-((tert-butoxycarbonyl)amino)-1-cyano-3-(1H-indol-3-yl)propyl)amino)-3′-(trifluoromethoxy)-[1,1′-biphenyl]-3-carboxylate], under setting [1], the minimal effective concentration is 3.12 µM and the EC50 is 2340 nM.

Turning to `COC(=O)c1cc(-c2ccc(N3CCN(C(C)C)CC3)nc2)ccc1NC(C#N)[C@H](Cc1c[nH]c2ccccc12)NC(=O)OC(C)(C)C` (stereo partly drawn) [(Iae), methyl 2-(((2S)-2-((tert-butoxycarbonyl)amino)-1-cyano-3-(1H-indol-3-yl)propyl)amino)-5-(6-(4-isopropylpiperazin-1-yl)pyridin-3-yl)benzoate], under setting [1], the minimal effective concentration worked out at 3.12 µM and the EC50 was 2340 nM.

As to `CCOc1ncc(-c2ccc(NC(C#N)[C@H](Cc3c[nH]c4ccccc34)NC(=O)OC(C)(C)C)c(C(=O)OC)c2)cn1` (stereo partly drawn) [(Iaf), methyl 2-(((2S)-2-((tert-butoxycarbonyl)amino)-1-cyano-3-(1H-indol-3-yl)propyl)amino)-5-(2-ethoxypyrimidin-5-yl)benzoate], under setting [1], the minimal effective concentration was 3.12 µM and the concentration for a half-maximal effect (EC50) was 2340 nM.

For `CCCCc1ccc(-c2ccc(NC(C#N)[C@H](Cc3c[nH]c4ccccc34)NC(=O)OC(C)(C)C)c(C(=O)OC)c2)cc1` (stereo partly drawn) [(Iag), methyl 4-(((2S)-2-((tert-butoxycarbonyl)amino)-1-cyano-3-(1H-indol-3-yl)propyl)amino)-4′-butyl-[1,1′-biphenyl]-3-carboxylate], the “PC MIN (lowest protective concentration)” value amounted to 6.25 µM and the EC50 was 4680 nM.

Consider `COC(=O)c1cc(-c2cccc(Cc3ccccc3)c2)ccc1NC(C#N)[C@H](Cc1c[nH]c2ccccc12)NC(=O)OC(C)(C)C` (stereo partly drawn) [(Iah), methyl 3′-benzyl-4-(((2S)-2-((tert-butoxycarbonyl)amino)-1-cyano-3-(1H-indol-3-yl)propyl)-amino)-[1,1′-biphenyl]-3-carboxylate], for which, under setting [1], the minimal effective concentration turned out to be 6.25 µM and the EC50 was 4680 nM.

On to `CC(C)(C)OC(=O)N[C@@H](Cc1c[nH]c2ccccc12)C(C#N)Nc1ccccc1C(=O)NCc1ccccc1` (stereo partly drawn) [(Iai), 2-(((2S)-2-(tert-butoxycarbonylamino)-1-cyano-3-(1H-indol-3-yl)propyl)amino)-N-benzyl-benzamide], for which, under setting [1], the minimal effective concentration was 6.25 µM and the EC50 is 4690 nM.

In the case of `CC(C)(C)OC(=O)N[C@@H](Cc1c[nH]c2ccccc12)C(C#N)Nc1ccccc1Br` (stereo partly drawn) [(Iaj), (3S)-2-((2-bromophenyl)amino)-4-(1H-indol-3-yl)-3-(tert-butoxycarbonylamino) butanenitrile], under setting [1], the minimal effective concentration is 6.25 µM and the concentration giving a half-maximal response (EC50) was 4690 nM.

Turning to `COC(=O)c1ccccc1NC(C#N)[C@@H](Cc1c[nH]c2ccccc12)NC(=O)OC(C)(C)C` (stereo partly drawn) [(Iak), methyl 2-(((2R)-2-((tert-butoxycarbonyl)amino)-1-cyano-3-(1H-indol-3-yl)propyl)amino)-benzoate], under setting [1], the minimal effective concentration was found to be 12.5 µM and the EC50 was 9370 nM.

Consider `CC(=O)c1ccccc1NC(C#N)[C@H](Cc1c[nH]c2ccccc12)NC(=O)OC(C)(C)C` (stereo partly drawn) [(Ial), (3S)-3-(tert-butoxycarbonylamino)-2-((2-acetylphenyl)amino)-4-(1H-indol-3-yl)butanenitrile], for which, under setting [1], the minimal effective concentration is 12.5 µM and the 50% effective concentration (EC50) was 9370 nM.

Consider `COC(=O)c1ccc(NC(C#N)[C@H](Cc2c[nH]c3ccccc23)NC(=O)OC(C)(C)C)cc1` (stereo partly drawn) [(Iam), methyl 4-(((2S)-2-((tert-butoxycarbonyl)amino)-1-cyano-3-(1H-indol-3-yl)propyl)amino)-benzoate], for which, under setting [1], the minimal effective concentration worked out at 25 µM and the 50% effective concentration (EC50) was 18800 nM.

As for `COC(=O)c1cc(-c2ccc(C(C)(C)C)cc2)ccc1NC(C#N)[C@H](Cc1c[nH]c2ccccc12)NC(=O)OC(C)(C)C` (stereo partly drawn) [(Ij), methyl 4-(((2S)-2-((tert-butoxycarbonyl)amino)-1-cyano-3-(1H-indol-3-yl)propyl)amino)-4′-(tert-butyl)-[1,1′-biphenyl]-3-carboxylate], under setting [1], the minimal effective concentration was determined as 1.56 µM and the EC50 was 1170 nM.

With `COC(=O)c1c(Br)cccc1NC(C#N)[C@H](Cc1c[nH]c2ccccc12)NC(=O)OC(C)(C)C` (stereo partly drawn) [(Ik), methyl 2-bromo-6-(((2S)-2-((tert-butoxycarbonyl)amino)-1-cyano-3-(1H-indol-3-yl)propyl)-amino)benzoate], under setting [1], the minimal effective concentration stood at 1.56 µM and the EC50 was 1170 nM.

As for `CCc1ccc(-c2ccc(NC(C#N)[C@H](Cc3c[nH]c4ccccc34)NC(=O)OC(C)(C)C)c(C(=O)OC)c2)cc1` (stereo partly drawn) [(Il), methyl 4-(((2S)-2-((tert-butoxycarbonyl)amino)-1-cyano-3-(1H-indol-3-yl)propyl)amino)-4′-ethyl-[1,1′-biphenyl]-3-carboxylate], under setting [1], the minimal effective concentration turned out to be 1.56 µM and the concentration for a half-maximal effect (EC50) is 1170 nM.

For the compound `COC(=O)c1cc(-c2ccc(C3CC3)cc2)ccc1NC(C#N)[C@H](Cc1c[nH]c2ccccc12)NC(=O)OC(C)(C)C` (stereo partly drawn) [(Im1), methyl 4-(((2S)-2-((tert-butoxycarbonyl)amino)-1-cyano-3-(1H-indol-3-yl)propyl)amino)-4′-cyclopropyl-[1,1′-biphenyl]-3-carboxylate], the “PC MIN (lowest protective concentration)” value is 1.56 µM and the EC50 is 1170 nM.

Consider `COC(=O)c1cc(-c2ccc(C3CC3)cc2)ccc1NC(C#N)[C@H](Cc1c[nH]c2ccccc12)NC(=O)OC(C)(C)C` (stereo partly drawn) [(Im2), methyl 4-(((2S)-2-((tert-butoxycarbonyl)amino)-1-cyano-3-(1H-indol-3-yl)propyl)amino)-4′-cyclopropyl-[1,1′-biphenyl]-3-carboxylate], for which the “PC MIN (lowest protective concentration)” value is 1.56 µM and the EC50 is 1170 nM.

Regarding `COC(=O)c1cc(-c2ccc(C3CC3)cc2)ccc1NC(C#N)[C@H](Cc1c[nH]c2ccccc12)NC(=O)OC(C)(C)C` (stereo partly drawn) [(Im3), methyl 4-(((2S)-2-((tert-butoxycarbonyl)amino)-1-cyano-3-(1H-indol-3-yl)propyl)amino)-4′-(cyclopropyl)-[1,1′-biphenyl]-3-carboxylate], the “PC MIN (lowest protective concentration)” value worked out at 3.12 µM and the EC50 is 2340 nM.

Regarding `COC(=O)c1cc(-c2ccc(C3CC3)cc2)ccc1NC(C#N)[C@H](Cc1c[nH]c2ccccc12)NC(=O)OC(C)(C)C` (stereo partly drawn) [(Im4), methyl 4-(((2S)-2-((tert-butoxycarbonyl)amino)-1-cyano-3-(1H-indol-3-yl)propyl)amino)-4′-cyclopropyl-[1,1′-biphenyl]-3-carboxylate], the “PC MIN (lowest protective concentration)” value is 6.25 µM and the half-maximal effective concentration (EC50) was 4690 nM.

On to `COC(=O)c1cc(-c2ccc(N3CCN(C)CC3)cc2)ccc1NC(C#N)[C@H](Cc1c[nH]c2ccccc12)NC(=O)OC(C)(C)C` (stereo partly drawn) [(In), methyl 4-(((2S)-2-((tert-butoxycarbonyl)amino)-1-cyano-3-(1H-indol-3-yl)propyl)amino)-4′-(4-methylpiperazin-1-yl)-[1,1′-biphenyl]-3-carboxylate], for which, under setting [1], the minimal effective concentration was 1.56 µM and the concentration for a half-maximal effect (EC50) is 1170 nM.

In the case of `COC(=O)c1cc(-c2ccc(C)nc2)ccc1NC(C#N)[C@H](Cc1c[nH]c2ccccc12)NC(=O)OC(C)(C)C` (stereo partly drawn) [(Ir), methyl 2-(((2S)-2-((tert-butoxycarbonyl)amino)-1-cyano-3-(1H-indol-3-yl)propyl)amino)-5-(6-methylpyridin-3-yl)benzoate], under setting [1], the minimal effective concentration stood at 1.56 µM and the concentration for a half-maximal effect (EC50) is 1170 nM.

With `COC(=O)c1cc(-c2ccc(OC)nc2)ccc1NC(C#N)[C@H](Cc1c[nH]c2ccccc12)NC(=O)OC(C)(C)C` (stereo partly drawn) [(It), methyl 2-(((2S)-2-((tert-butoxycarbonyl)amino)-1-cyano-3-(1H-indol-3-yl)propyl)amino)-5-(6-methoxypyridin-3-yl)benzoate], under setting [1], the minimal effective concentration was 1.56 µM and the 50% effective concentration (EC50) was 1170 nM.

On to `COC(=O)c1ccccc1NC(C#N)[C@H](Cc1c[nH]c2ccccc12)NC(=O)OC(C)(C)C` (stereo partly drawn) [(Iu), methyl 2-(((2S)-2-((tert-butoxycarbonyl)amino)-1-cyano-3-(1H-indol-3-yl)propyl)amino)benzoate], for which, under setting [1], the minimal effective concentration came to 3.12 µM and the EC50 was 2340 nM.

The EC50 is the midpoint of the concentration-response curve.
